# Patent US10316035B2, “Triazolopyridine inhibitors of myeloperoxidase” (BRISTOL-MYERS SQUIBB COMPANY, priority 2015, dated 2019)
# Counter-ions that a name gives are not always drawn.
# Molecular target: T1, myeloperoxidase (MPO) (Homo sapiens, UniProt P05164)
# T1 sequence (P05164 49-745): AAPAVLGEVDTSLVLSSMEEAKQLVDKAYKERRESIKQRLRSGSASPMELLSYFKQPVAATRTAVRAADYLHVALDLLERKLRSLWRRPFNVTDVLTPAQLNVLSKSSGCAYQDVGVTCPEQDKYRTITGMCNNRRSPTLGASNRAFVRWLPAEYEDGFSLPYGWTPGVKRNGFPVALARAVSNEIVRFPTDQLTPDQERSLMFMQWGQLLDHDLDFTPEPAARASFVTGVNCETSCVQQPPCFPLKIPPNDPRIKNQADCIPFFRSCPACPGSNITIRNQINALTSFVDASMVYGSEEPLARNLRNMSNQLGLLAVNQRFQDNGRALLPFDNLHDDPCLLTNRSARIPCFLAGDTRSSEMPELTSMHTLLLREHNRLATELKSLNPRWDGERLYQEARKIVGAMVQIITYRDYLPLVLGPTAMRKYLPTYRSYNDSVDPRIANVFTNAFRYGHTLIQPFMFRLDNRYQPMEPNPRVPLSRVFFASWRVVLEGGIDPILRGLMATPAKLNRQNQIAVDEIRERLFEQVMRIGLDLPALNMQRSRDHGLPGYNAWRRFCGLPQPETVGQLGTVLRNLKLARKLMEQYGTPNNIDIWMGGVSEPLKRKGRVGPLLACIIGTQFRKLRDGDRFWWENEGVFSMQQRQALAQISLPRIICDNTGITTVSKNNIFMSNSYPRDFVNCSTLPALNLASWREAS
# Assay: MPO peroxidation assay (Amplex Red assay)
# Type: biochemical
# Conditions: not given
# Method in brief: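 Peroxidase turnover of Amplex Red to fluorescent resorufin (Ex 535/Em 590 nm) was followed for 15 min in 100 mM KPi, pH 7.4, after 10 min room-temperature preincubation of compound with 200 pM enzyme plus 40 nM H2O2. The substrate mix contained 200 μM Amplex Red and 10 mM H2O2. IC50s came from linear-phase rates (180–540 s) fitted with a Hill equation.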
row,IC50 [nM],Structure (SMILES)
1,101 to 999,"CS(=O)(=O)c1ccccc1COc1cc(N)nc2[nH]nnc12 [Example 232, 7-((2-(Methylsulfonyl)benzyl)oxy)-3H-[1,2,3]triazolo[4,5-b]pyridin-5-amine]"

# Same assay, conditions: MPO peroxidation, potency range class; read-out: Amplex Red IC50
row,Structure (SMILES),IC50 [nM]
1,"COc1ccccc1CNC(=O)c1ccc(COc2cc(N)nc3[nH]nnc23)c(Cl)c1 [Example 215, 4-((5-amino-3H-[1,2,3]triazolo[4,5-b]pyridin-7-yloxy)methyl)-3-chloro-N-(2-methoxybenzyl)benzamide]",1 to 100
2,"CNC(=O)CNC(=O)c1ccc(COc2cc(N)nc3[nH]nnc23)c(Cl)c1 [Example 218, 4-((5-amino-3H-[1,2,3]triazolo[4,5-b]pyridin-7-yloxy)methyl)-3-chloro-N-(2-(methylamino)-2-oxoethyl) benzamide]",101 to 999
3,"Nc1cc(OCc2ccc(C(=O)NCc3cccnc3)cc2Cl)c2nn[nH]c2n1 [Example 219, 4-((5-amino-3H-[1,2,3]triazolo[4,5-b]pyridin-7-yloxy)methyl)-3-chloro-N-(pyridin-3-ylmethyl)benzamide]",1 to 100
4,"NC(=O)C1CCN(C(=O)c2ccc(COc3cc(N)nc4[nH]nnc34)c(Cl)c2)CC1 [Example 220, 1-(4-((5-amino-3H-[1,2,3]triazolo [4,5-b]pyridin-7-yloxy)methyl)-3-chlorobenzoyl)piperidine-4-carboxamide]",101 to 999
5,"Nc1cc(OCc2ccc(C(=O)NC3CCCCC3)cc2Cl)c2nn[nH]c2n1 [Example 221, 4-((5-amino-3H-[1,2,3]triazolo[4,5-b]pyridin-7-yloxy)methyl)-3-chloro-N-cyclohexylbenzamide]",1 to 100
6,"CN(C)CCN(C)C(=O)c1ccc(COc2cc(N)nc3[nH]nnc23)c(Cl)c1 [Example 222, 4-((5-amino-3H-[1,2,3]triazolo[4,5-b]pyridin-7-yloxy)methyl)-3-chloro-N-(2-(dimethylamino)ethyl)-N-methylbenzamide]",101 to 999
7,"CS(=O)(=O)c1cccc(Cl)c1COc1cc(N)nc2[nH]nnc12 [Example 225, 7-(2-Chloro-6-(methylsulfonyl)benzyloxy)-3H-[1,2,3]triazolo[4,5-b]pyridin-5-amine]",1 to 100
8,"CCS(=O)(=O)c1ccc(Cl)cc1COc1cc(N)nc2[nH]nnc12 [Example 227, 7-((5-Chloro-2-(ethylsulfonyl)benzyl)oxy)-3H-[1,2,3]triazolo[4,5-b]pyridin-5-amine, TFA]",101 to 999
9,"Nc1cc(OCc2cc(Cl)ccc2S(=O)(=O)Cc2ccccc2)c2nn[nH]c2n1 [Example 228, 7-((2-(Benzylsulfonyl)-5-chlorobenzyl)oxy)-3H-[1,2,3]triazolo[4,5-b]pyridin-5-amine, TFA]",101 to 999
10,"Nc1cc(OCc2c(F)cc(Br)cc2F)c2nn[nH]c2n1 [Example 233, 7-((4-Bromo-2,6-difluorobenzyl)oxy)-3H-[1,2,3]triazolo[4,5-b]pyridin-5-amine, TFA]",1 to 100
11,"Nc1cc(OCc2c(F)ccc(Br)c2F)c2nn[nH]c2n1 [Example 236, 7-((3-Bromo-2,6-difluorobenzyl)oxy)-3H-[1,2,3]triazolo[4,5-b]pyridin-5-amine]",1 to 100
12,"Nc1cc(OCc2ccccc2OC(F)F)c2nn[nH]c2n1 [Example 238, 7-((2-(Difluoromethoxy)benzyl)oxy)-3H-[1,2,3]triazolo[4,5-b]pyridin-5-amine]",1 to 100
13,"Nc1cc(OCc2ccc(Br)cc2OC(F)(F)F)c2nn[nH]c2n1 [Example 240, 7-((4-Bromo-2-(trifluoromethoxy)benzyl)oxy)-3H-[1,2,3]triazolo[4,5-b]pyridin-5-amine]",1 to 100
14,"N#Cc1cc(Br)ccc1COc1cc(N)nc2[nH]nnc12 [Example 245, 2-(((5-Amino-3H-[1,2,3]triazolo[4,5-b]pyridin-7-yl)oxy)methyl)-5-bromobenzonitrile]",1 to 100
15,"N#Cc1ccccc1COc1cc(N)nc2[nH]nnc12 [Example 247, 2-(((5-amino-3H-[1,2,3]triazolo[4,5-b]pyridin-7-yl)oxy)methyl)benzonitrile]",1 to 100
16,"CS(=O)(=O)c1ccc(COc2cc(N)nc3[nH]nnc23)c([N+](=O)[O-])c1 [Example 250, 7-((4-(methylsulfonyl)-2-nitrobenzyl)oxy)-3H-[1,2,3]triazolo[4,5-b]pyridin-5-amine]",101 to 999

# Next, values leading:
row,IC50 [nM],Structure (SMILES)
1,101 to 999,Nc1cc(OCc2ccc(C(=O)N3CCC(CO)C3)cc2Cl)c2nn[nH]c2n1 (stereo not drawn) [Example 210]
2,101 to 999,"CC(=O)N[C@H]1CCN(C(=O)c2ccc(COc3cc(N)nc4[nH]nnc34)c(Cl)c2)C1 [Example 212, (S)-N-(1-(4-((5-amino-3H-[1,2,3]triazolo[4,5-b]pyridin-7-yloxy)methyl)-3-chlorobenzoyl)pyrrolidin-3-yl)acetamide]"
3,1 to 100,"Nc1cc(OCc2ccc(C(=O)Nc3ccccc3)cc2Cl)c2nn[nH]c2n1 [Example 213, 4-((5-amino-3H-[1,2,3]triazolo[4,5-b]pyridin-7-yloxy)methyl)-3-chloro-N-phenylbenzamide]"
4,1 to 100,"Nc1cc(OCc2ccc(C(=O)NCc3ccccc3Cl)cc2Cl)c2nn[nH]c2n1 [Example 214, 4-((5-amino-3H-[1,2,3]triazolo[4,5-b]pyridin-7-yloxy)methyl)-3-chloro-N-(2-chlorobenzyl)benzamide]"
5,101 to 999,"CN(C(=O)c1ccc(COc2cc(N)nc3[nH]nnc23)c(Cl)c1)C1CCCCC1 [Example 223, 4-((5-amino-3H-[1,2,3]triazolo[4,5-b]pyridin-7-yloxy)methyl)-3-chloro-N-cyclohexyl-N-methylbenzamide]"
6,1 to 100,"Nc1cc(OCc2ccc(C(=O)NCCc3c[nH]cn3)cc2Cl)c2nn[nH]c2n1 [Example 224, N-(2-(1H-imidazol-4-yl)ethyl)-4-((5-amino-3H-[1,2,3]triazol[4,5-b]pyridin-7-yloxy)methyl)-3-chlorobenzamide]"
7,101 to 999,"CNS(=O)(=O)c1ccccc1COc1cc(N)nc2[nH]nnc12 [Example 229, 2-(((5-Amino-3H-[1,2,3]triazolo[4,5-b]pyridin-7-yl)oxy)methyl)-N-methylbenzenesulfonamide, TFA]"
8,101 to 999,"Nc1cc(OCc2ccccc2S(N)(=O)=O)c2nn[nH]c2n1 [Example 230, 2-(((5-Amino-3H-[1,2,3]triazolo[4,5-b]pyridin-7-yl)oxy)methyl)benzenesulfonamide, TFA]"
9,1 to 100,"CS(=O)(=O)c1cc(Br)ccc1COc1cc(N)nc2[nH]nnc12 [Example 231, 7-((4-Bromo-2-(methylsulfonyl)benzyl)oxy)-3H-[1,2,3]triazolo[4,5-b]pyridin-5-amine, TFA]"
10,1 to 100,"Nc1cc(OCc2c(F)ccc(Br)c2Cl)c2nn[nH]c2n1 [Example 235, 7-((3-Bromo-2-chloro-6-fluorobenzyl)oxy)-3H-[1,2,3]triazolo[4,5-b]pyridin-5-amine]"
11,1 to 100,"Nc1cc(OCc2c(F)cccc2Cl)c2nn[nH]c2n1 [Example 237, 7-((2-Chloro-6-fluorobenzyl)oxy)-3H-[1,2,3]triazolo[4,5-b]pyridin-5-amine]"
12,1 to 100,"Nc1cc(OCc2ccccc2C(F)(F)F)c2nn[nH]c2n1 [Example 239, 7-((2-(Trifluoromethyl)benzyl)oxy)-3H-[1,2,3]triazolo[4,5-b]pyridin-5-amine]"
13,1 to 100,"Nc1cc(OCc2cc(Cl)ccc2C(F)(F)F)c2nn[nH]c2n1 [Example 241, 7-((5-Chloro-2-(trifluoromethyl)benzyl)oxy)-3H-[1,2,3]triazolo[4,5-b]pyridin-5-amine]"
14,1 to 100,"COc1cc(-n2cccn2)ccc1COc1cc(N)nc2[nH]nnc12 [Example 243, 7-((2-Methoxy-4-(1H-pyrazol-1-yl)benzyl)oxy)-3H-[1,2,3]triazolo[4,5-b]pyridin-5-amine]"
15,1 to 100,"Nc1cc(OCc2ccc(-n3ccnc3)cc2OC(F)(F)F)c2nn[nH]c2n1 [Example 244, 7-((4-(1H-Imidazol-1-yl)-2-(trifluoromethoxy)benzyl)oxy)-3H-[1,2,3]triazolo[4,5-b]pyridin-5-amine]"
16,101 to 999,"CS(=O)(=O)c1ccc(COc2cc(N)nc3[nH]nnc23)c(Cl)c1 [Example 246, 7-((2-chloro-4-(methylsulfonyl)benzyl)oxy)-3H-[1,2,3]triazolo[4,5-b]pyridin-5-amine]"
17,1 to 100,"Nc1cc(OCc2cccc(SC(F)(F)F)c2)c2nn[nH]c2n1 [Example 248, 7-((3-((trifluoromethyl)thio)benzyl)oxy)-3H-[1,2,3]triazolo[4,5-b]pyridin-5-amine]"
18,1 to 100,"Nc1cc(OCc2cc([N+](=O)[O-])ccc2Cl)c2nn[nH]c2n1 [Example 249, 7-((2-chloro-5-nitrobenzyl)oxy)-3H-[1,2,3]triazolo[4,5-b]pyridin-5-amine]"
19,1 to 100,"Cc1nc(-c2ccc(COc3cc(N)nc4[nH]nnc34)c(F)c2)no1 [Example 251, 7-((2-fluoro-4-(5-methyl-1,2,4-oxadiazol-3-yl)benzyl)oxy)-3H-[1,2,3]triazolo[4,5-b] pyridin-5-amine]"
